Here are results for 2 compounds from PMC4393083, “Antiviral Activity and Possible Mechanism of Action of Constituents Identified in Paeonia lactiflora Root toward Human Rhinoviruses” (PLoS ONE, 2015).

The test system of one experiment is mICAM-1. Briefly: Western blot of mICAM-1 in MRC5 cells. It is filed as cell-based, human. The following applies: MRC5, 2 days, HRV-2 or HRV-4, 100 μg/mL PA, 20 μg/mL PGG. Here is the method: (§1) Cell lysates from infected and noninfected MRC5 cultures 2 days after incubation with or without test compounds were obtained in RIPA buffer and 1% mammalian cell protease inhibitor cocktail according to the manufacturer’s instructions. Working dilutions of primary antibodies were dilulted 500, 2000, and 1000 times for anti-ICAM-1, anti-LDLR, and anti-actin antibodies, respectively. Working dilutions of secondary antibody was 1000, 1000, and 800 for anti-ICAM-1, anti-LDLR, and anti-actin, respectively. Ten micrograms of cell lysates from different treatments were mixed with an equal volume of 5× Laemmli sample buffer, boiled in 10 min, and resolved by electrophoresis in 11% sodium dodecyl sulfate-polyacrylamide gels (SDS-PAGE). […] Differences in protein expressions were quantified using a Molecular Imager Gel Doc XR system (Bio-Rad, Hercules, CA) and normalized to actin expression on the same membrane.
(§2) The expressions of ICAM-1 and LDLR were examined using real-time qRT-PCR and Western blot. Furthermore, concentrations of soluble ICAM-1 (sICAM-1) in cell-free culture supernatants 2 days after treatment were measured using a sICAM-1 ELISA Kit (Pierce Biotechnology, Rockford, IL) according to the manufacturer’s instructions. […] The concentrations of ICAM-1 in the test samples were determined from OD values using standard curve of each assay.
(In general: In western blotting, separated proteins are transferred to a membrane and probed.)

A further experiment has as its system IL-6. Briefly: IL-6 ELISA in MRC5 supernatants. Format: cell-based, human. Particulars: for IL-6 concentrations in infected cultures: HRV-2 or HRV-4 infected MRC5 supernatants, 2 days, 100 μg/mL PA, 20 μg/mL PGG. The protocol:
The concentrations of IL-6, IL-8, and TNF in cell-free culture supernatants 2 days after treatment were measured using specific ELISA. OptEIA IL-6, IL-8, and TNF ELISA kits (BD Biosciences, San Diego, CA) were used for the assays. The sensitivities of these ELISA assays were 2.2, 0.8, and 2.0 pg/mL, respectively. The concentrations of IL-6, IL-8, and TNF in the test samples were determined from OD values using standard curve of each assay.
(In general: An ELISA detects its analyte on a solid surface through an enzyme-linked reagent.)

The next experiment deals with IL-1β. Briefly: IL-1β mRNA expression, qRT-PCR in MRC5. It is filed as cell-based, human. Particulars: MRC5, 2 days after HRV-2 or HRV-4 infection; 100 μg/mL PA, 20 μg/mL PGG. The protocol:
(§3) To evaluate the level of gene expression, real-time qRT-PCR with SYBR Green dye was carried out. HRV-2 or HRV-4 infected and noninfected cultures of MRC5 monolayers grown in 25 cm^2 cell culture flasks (Corning, NY) were treated with 100 μg/mL PA or 20 μg/mL PGG. After incubation at 37°C and 5% CO2 for 2 days, total RNA was extracted from the culture cells using the RNeasy Plus Mini Kit (Qiagen, Hilden, Germany) according to the manufacturer’s instructions. Contaminated genomic DNA was removed using RQ1 RNase-free DNase (Promega, Madison, WI). Complementary DNA (cDNA) was synthesized using 1 μg total RNA through a reverse transcription reaction using the SuperScript First-Strand Synthesis Kit (Invitrogen, Carlsbad, CA). […] The PCR conditions were as follows: 50°C for 2 min, 95°C for 10 min, and then 50 cycles of 95°C for 15 s and either 60°C [β2-microglobulin (B2M), interleukin (IL)-6, IL-8, LDLR, ICAM-1, HRV-2, and HRV-4] or 58°C (B2M and IL-1β) or 55°C [B2M, Toll-like receptor 3 (TLR3), tumor necrosis factor (TNF), and interferon beta (IFNβ)] for 30 s. mRNA expression level of target gene was normalized to mRNA expression level for the housekeeping gene B2M and analyzed by the 2^–ΔΔCT method using StepOne Software v2.1 and DataAssist Software (Applied Biosystems). […]
(In qPCR the cycle at which signal appears reflects the starting amount.)

The next experiment has as its system TLR3. In words: TLR3 mRNA expression, qRT-PCR in MRC5. Format: cell-based, human. Particulars: MRC5, 2 days after infection; 100 μg/mL PA, 20 μg/mL PGG. The protocol:
as §3

The test system of a further experiment is sICAM-1. In words: Soluble ICAM-1 ELISA in MRC5 culture supernatants. Particulars: HRV-2 or HRV-4 infected MRC5 cultures, 100 μg/mL PA, 20 μg/mL PGG. Format: cell-based, human. Here is the method: The expressions of ICAM-1 and LDLR were examined using real-time qRT-PCR and Western blot. Furthermore, concentrations of soluble ICAM-1 (sICAM-1) in cell-free culture supernatants 2 days after treatment were measured using a sICAM-1 ELISA Kit (Pierce Biotechnology, Rockford, IL) according to the manufacturer’s instructions. The sensitivities of the assays were 0.3 ng/mL. The concentrations of ICAM-1 in the test samples were determined from OD values using standard curve of each assay.

Another experiment concerns ICAM-1. Briefly: ICAM-1 mRNA expression, qRT-PCR in MRC5. Format: cell-based, human. The following applies: MRC5, 2 days after HRV-2 or HRV-4 infection; 100 μg/mL PA, 20 μg/mL PGG. Here is the method:
as §3, with “WI).” for “WI). Complementary DNA (cDNA) was synthesized using 1 μg total RNA through a reverse transcription reaction using the SuperScript First-Strand Synthesis Kit (Invitrogen, Carlsbad, CA).”
The expressions of ICAM-1 and LDLR were examined using real-time qRT-PCR and Western blot. […] The concentrations of ICAM-1 in the test samples were determined from OD values using standard curve of each assay.

The next experiment relates to HRV-2. Briefly: Real-time qRT-PCR of HRV-2 RNA replication in MRC5 cells. Format: cell-based, human rhinovirus. The following applies: MRC5, 2 days after infection; 100 μg/mL PA, 20 μg/mL PGG; vs untreated cultures. The protocol: as §3
In a further experiment the test system is LDLR. In words: Western blot of LDLR in MRC5 cells. It is filed as cell-based, human. Particulars: MRC5, 2 days, regardless of HRV-2 infection, similar with HRV-4, 100 μg/mL PA, 20 μg/mL PGG. Here is the method: as §1, §2

With `COc1ccc(C(C)=O)c(O)c1` [PA, paeonol], the “mICAM-1 protein levels vs cultures without treatment” value in the experiment on mICAM-1 is listed as “similar”. For the same compound, in the experiment on IL-6, the “IL-6 concentrations in infected cultures” value is reported as “reduced”. The “IL-6 concentrations in mock cultures vs mock cultures without treatment” value in the experiment on IL-6 (noninfected MRC5 supernatants) was “higher”. Also, the “effect on HRV-induced IL-1β mRNA expression” value with IL-1β was “disappeared or was significantly reduced”. Besides, the “TLR3 mRNA expression vs cultures without treatment” value in the experiment with TLR3 is “significantly lower”. The “sICAM-1 levels in supernatants vs cultures without treatment” value with sICAM-1 is reported as “significantly lower”. Besides, the “effect on HRV-induced ICAM-1 mRNA expression” value in the experiment on ICAM-1 is “reduced”. Also, the “reduction of HRV-2 RNA replication level” value with HRV-2 amounted to 30.1 fold. Moreover, the “effect on LDLR protein expression” value with LDLR is reported as “no effect”.
With `O=C(OC[C@H]1O[C@@H](OC(=O)c2cc(O)c(O)c(O)c2)[C@H](OC(=O)c2cc(O)c(O)c(O)c2)[C@@H](OC(=O)c2cc(O)c(O)c(O)c2)[C@@H]1OC(=O)c1cc(O)c(O)c(O)c1)c1cc(O)c(O)c(O)c1` [PGG, 1,2,3,4,6-penta-O-galloyl-β-D-glucopyranose], the “mICAM-1 protein levels vs cultures without treatment” value with mICAM-1 is “similar”. For the same compound, the “IL-6 concentrations in infected cultures” value in the experiment with IL-6 is on record as “reduced”. Also, the “effect on HRV-induced IL-1β mRNA expression” value in the experiment on IL-1β was “disappeared or was significantly reduced”. Besides, the “TLR3 mRNA expression vs cultures without treatment” value with TLR3 was “significantly lower”. Moreover, the “sICAM-1 levels in supernatants vs cultures without treatment” value in the experiment with sICAM-1 is recorded as “significantly lower”. The “effect on HRV-induced ICAM-1 mRNA expression” value with ICAM-1 is “reduced”. For the same compound, the “reduction of HRV-2 RNA replication level” value with HRV-2 is 14.3 fold. Further, the “effect on LDLR protein expression” value in the experiment on LDLR was “sharp decline”.
